This passage reports minimum inhibitory concentration results from the supplement of paper PMC6206229.

The structures appear in SMILES notation. Converted amounts (≈) assume the structure as drawn.

For assay [1], the system named is Staphylococcus aureus ATCC 29213 (MSSA). In words: minimum inhibitory concentration; extreme values may be limits of the assay. The gist of the method: (§1)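 Methicillin-susceptible and methicillin-resistant Staphylococcus aureus were assessed by broth microdilution with a resazurin read-out, compounds spanning 0 to 100 µM and incubated for 24 h at 37°C before 30 µl of 0.015% resazurin was added for 2–4 h. For the minimum inhibitory concentration, the lowest concentration whose well stayed blue rather than pink was recorded.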

Assay [2] has as its system Staphylococcus aureus ATCC 700699 (MRSA). The description is as above. A digest of the protocol:
as §1

Take `CC(C)(C)c1cc(C(=O)N2CCN(c3nccnc3C#N)CC2)n(Cc2ccccc2)n1`: the minimum inhibitory concentration in assay [1] and in assay [2] was above 50 µM in each case.
`O=S(=O)(c1ccc(Cl)cc1)N1CCN(C(=S)NCc2ccco2)CC1`: the minimum inhibitory concentration in assay [1] and in assay [2] was above 50 µM in each case.
`O=C(C1CCCCC1)N1CC(=O)N2CCc3ccccc3C2C1` (stereo not drawn): the minimum inhibitory concentration in assay [1] and in assay [2] was above 50 µM each time.
As to `COc1ccc(C(=N)N)cc1-c1cn(-c2ccc(C(=N)N)cc2)nn1`, the minimum inhibitory concentration in assay [1] and in assay [2] was above 50 µM in each case.
For `Cc1cnc(N2CCN[C@@H](Cc3ccccc3)C2)nc1Oc1ccc(-n2ccnc2)cc1`, the minimum inhibitory concentration in assay [1] and in assay [2] was above 50 µM in each case.
Take `O=C(NC1CC1)c1ccc(N2CCOc3ccc(Cl)cc32)s1`: the minimum inhibitory concentration in assay [1] and in assay [2] was above 50 µM each time.
Take `COc1ccc(C2=NN(C3CCCCCC3)C(=O)C2(C)C)cc1OCCCCOc1ccc(-c2nn[nH]n2)cc1`: the minimum inhibitory concentration in assay [1] and in assay [2] was 50 µM (≈ 27.3 µg/mL) each time.
As for `c1ccc(-c2cc(N3CCCCC3)c3ccccc3n2)nc1`, the minimum inhibitory concentration in assay [1] and in assay [2] was above 50 µM throughout.
For `C[C@H](C(N)=O)N1CCCC[C@@H]1c1ccc(OCc2cccc(F)c2)cc1`, the minimum inhibitory concentration in assay [1] and in assay [2] was above 50 µM throughout.
As to `CO[C@@H](C(=O)N1Cc2[nH]nc(NC(=O)c3ccc(N4CCN(C)CC4)cc3)c2C1)c1ccccc1`, the minimum inhibitory concentration in assay [1] and in assay [2] was above 50 µM in each case.
Consider `Cc1ccc(NC(=O)CC2COc3ccccc3O2)cc1Cl` (stereo not drawn), for which the minimum inhibitory concentration in assay [1] and in assay [2] was above 50 µM each time.
As for `O=C1[C@@H](Oc2ccccc2)[C@@H](c2ccc(Cl)cc2)N1CCn1cnc2c(NCc3ccccc3)ncnc21`, the minimum inhibitory concentration in assay [1] and in assay [2] was above 50 µM each time.
Take `FC(F)(F)c1cnc(Sc2nnc(-c3ccncc3)o2)c(Cl)c1`: the minimum inhibitory concentration in assay [1] and in assay [2] was above 50 µM throughout.
As for `COc1ccccc1CNC(=O)c1cc(C2CC2)nc2c1cnn2C(C)C`, the minimum inhibitory concentration in assay [1] and in assay [2] was above 50 µM in each case.
Take `O=C(Nc1nnc(S)s1)c1cc(Br)ccc1Cl`: the minimum inhibitory concentration in assay [1] and in assay [2] was above 50 µM in each case.
Regarding `CN1CCN(c2nccc3[nH]c(-c4cccc(F)c4)cc23)CC1`, the minimum inhibitory concentration in assay [1] and in assay [2] was above 50 µM throughout.
For the compound `Nc1ncnc2[nH]nc(Cc3cccc4ccccc34)c12`, the minimum inhibitory concentration in assay [1] and in assay [2] was above 50 µM each time.
On to `COc1cccc(-c2cc3c(Nc4cccnc4)nccc3[nH]2)c1`, for which the minimum inhibitory concentration in assay [1] and in assay [2] was above 50 µM each time.
Regarding `COc1cc(C2=NCCN2)cc2cc(-c3ccc(C4=NCCN4)cc3)oc12`, the minimum inhibitory concentration in assay [1] and in assay [2] was above 50 µM in each case.
`CC(C)(C)OC(=O)N1CCN(c2cc(-c3ccc(Oc4ccccc4)cc3)n[nH]2)CC1`: the minimum inhibitory concentration in assay [1] and in assay [2] was above 50 µM each time.
Regarding `CCN(CC)CCCCCCNc1cc(OC)cc2c(C)ccnc12`, the minimum inhibitory concentration in assay [1] and in assay [2] was above 50 µM throughout.
Take `Cc1cc(Nc2ccncc2)n2nc(C)c(-c3ccccc3Cl)c2n1`: the minimum inhibitory concentration in assay [1] and in assay [2] was above 50 µM throughout.
For the compound `CC(C)(C)n1nc(Cc2ccc(F)c(Cl)c2)c2c(N)ncnc21`, the minimum inhibitory concentration in assay [1] and in assay [2] was above 50 µM each time.
In the case of `Cc1ccc2c(c1C)NC(=O)C21NN=C(c2ccccc2)S1` (stereo not drawn), the minimum inhibitory concentration in assay [1] and in assay [2] was above 50 µM throughout.
